Results on 24 compounds are retold here after article PMC6509344, “Novel CMKLR1 Inhibitors for Application in Demyelinating Disease” (Scientific Reports, 2019).

Assay [1] relates to C57BL/6 mice with EAE. The assay is described as follows: Experimental autoimmune encephalomyelitis (EAE), MOG35–55/CFA immunization. Format: in vivo, mouse. The following applies: for Day of onset (Mean ± SEM) / Maximum Score (Mean ± SEM) / AUC (Mean ± SEM) of clinical score: Table 4, 10 mg/kg daily to D21, n = 8; for Maximum Score (Mean ± SEM): clinical score 0-5; for AUC (Mean ± SEM) of clinical score: mean clinical score x day. How it is done:
C57BL/6 mice were purchased from The Jackson Laboratory. […] Animal experiments were conducted in accordance with approved Veterans Affairs, National Institutes of Health, and Institutional Animal Care and Use Committee guidelines.
CFA consisted of 5 mg/ml mTB (Mycobacterium-tuberculosis H37 Ra, BD Difco) in IFA (Incomplete Freund’s Adjuvant, Sigma). MOG35–55 was reconstituted at 2 mg/ml in PBS. Mice also received 200 ng pertussis toxin (List Biological Laboratories, Inc) by i.p. injection at the time of immunization and two days later. […] For a direct comparison to α-NETA, the DMF and compound doses were also 10 mg/kg in 10% captisol. Mice were monitored daily for clinical disease and scored (0 = normal/healthy, 1 = limp tail, 2 = hindlimb weakness, 3 = hindlimb paralysis, 4 = hindlimb and forelimb paralysis, 5 = moribund/dead).

The subject of assay [2] is (hu)CMKLR1 L1.2 cells. The experiment in a line: Chemotaxis assay toward huChemerin. Format: cell-based, human. Conditions: for IC50: (hu)CMKLR1 L1.2 cells migrating toward huChemerin, 2 h, read-out: Chemotaxis IC50 mean ± SEM (n). How it is done: (hu)CMKLR1 transfectants (generated in L1.2 pre-B cell lymphoma cells) were grown in RPMI 1640 (Corning) supplemented with L-glutamine, penicillin-streptomycin, and 10% BCS and G418-sulfate (KSE Scientific). DiscoverX PathHunter® CHO-K1 CMKLR1 β-Arrestin Cells were grown in RPMI lacking phenol red (Gibco, Life Technologies), supplemented with L-glutamine, penicillin-streptomycin, sodium pyruvate, non-essential amino acid, BCS, hygromycin, and G418-sulfate.
(hu)CMKLR1 L1.2 cells at 1 × 10^6 cell/ml were treated with 5 mM sodium butyrate (Sigma) overnight to induce hCMKLR1 expression. The next day, cells were washed in migration media (RPMI + 0.5%BSA) and resuspended at 1.5–3 × 10^6 cell/ml. Cells were pre-incubated at RT for 10 min with various concentrations of α-NETA or test compounds (α-NETA and test compounds were reconstituted in DMSO; final DMSO concentration in each well was 0.1%). 100 ul of cells were added to the upper chamber of a 24-well transwell plate (5 um pore size, Costar). Cells were allowed to migrate toward huChemerin ([…] in migration media, bottom chamber) for 2 h, 37 °C, 5% CO2. The number of migrated cells was quantified by flow cytometry (BD LSR2), and live cells were distinguished based on FSC × SSC properties. The background for this assay was typically low with 0 cells migrating to the buffer alone. For each independent trial, data was normalized to the maximum migration per compound tested and an IC50 value was generated using GraphPad Prism software. The average IC50 value for n independent trials (as specified in the table) is reported.

The target of assay [3] is T1, CMKLR1 (Homo sapiens, UniProt Q99788).
T1 construct: host or cells: CHO-K1 (PathHunter CMKLR1 β-Arrestin cells)
T1 sequence (Q99788 1-373): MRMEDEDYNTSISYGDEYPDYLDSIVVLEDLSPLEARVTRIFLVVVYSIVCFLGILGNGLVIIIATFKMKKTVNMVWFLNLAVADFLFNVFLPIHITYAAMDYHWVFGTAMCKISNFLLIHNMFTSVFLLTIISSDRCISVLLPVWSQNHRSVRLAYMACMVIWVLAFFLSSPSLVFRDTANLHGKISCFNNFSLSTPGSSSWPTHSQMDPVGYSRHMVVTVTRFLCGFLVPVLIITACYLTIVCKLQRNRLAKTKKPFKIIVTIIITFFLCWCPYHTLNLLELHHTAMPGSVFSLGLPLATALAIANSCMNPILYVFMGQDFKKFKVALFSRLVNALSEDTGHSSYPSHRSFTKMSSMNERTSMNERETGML
The assay is described as follows: β-arrestin recruitment assay (chemerin-dependent β-arrestin2 signaling). Format: cell-based. The following applies: for IC50: CMKLR1-CHO-β-Arrestin cells, 20 nM chemerin, read-out: β-arrestin IC50 mean ± SEM (n). The procedure: DiscoverX PathHunter® CHO-K1 CMKLR1 β-Arrestin Cells were grown in RPMI lacking phenol red (Gibco, Life Technologies), supplemented with L-glutamine, penicillin-streptomycin, sodium pyruvate, non-essential amino acid, BCS, hygromycin, and G418-sulfate. CMKLR1-CHO-β-Arrestin cells were seeded in 96 well plates at 1 × 10^5 cell/ml- 100 ul/well and incubated overnight at 37 °C, 5% CO2. […] (α-NETA and test compounds were reconstituted in DMSO; final DMSO concentration in each well was 0.1%). After 10 min, 5 ul of recombinant human chemerin (R&D Systems) at a final concentration of 20 nM was added to each well. Plates were incubated for 90 min at 37 °C, 5% CO2. Media was then removed and 50 ul of chemiluminescent substrate (Tropix Gal-Screen, Applied Biosciences) was added. The plate was incubated for 1 hr at RT and luminescence was detected using the SpectraMax M5 plate reader (Molecular Devices). For each independent trial (single replicate dose curves), data was normalized to the maximum signal per compound tested and an IC50 value was generated using GraphPad Prism software. The average IC50 value for n independent trials (as specified in the table) is reported.
On the technique in general: Activated receptors often draw arrestin, which recruitment assays turn into a signal.

[4] abbreviates: Table 3 quaternary ammonium salts.

Where a name gives a salt, the structure may show the parent alone. Read-outs that look alike come from different tables or passages of the source.

In general, IC50 refers to the concentration that gives 50% inhibition. Regarding `COc1ccc(C(=O)CC[N+](C)(C)C)cc1.[I-]` [Compound 27], in assay [1], the “Day of onset (Mean ± SEM)” value came to 16.0 ± 0.9, the “Maximum Score (Mean ± SEM)” value is 2.1 ± 0.1^¶ and the “AUC (Mean ± SEM) of clinical score” value amounted to 24.3 ± 4.2. Also, in assay [2], the “activity in chemotaxis assay (in words)” value is recorded as “highly active” and the concentration for half-maximal inhibition (IC50) came to 4.5 ± 1.5 µM. In addition, the “activity in β-arrestin2 assay (in words)” value in assay [3] is recorded as “highly active”. The IC50 in assay [3] (setting [4]) turned out to be 1.9 ± 0.2 µM.

As for `C[N+](C)(C)CCC(=O)c1ccc2ccccc2c1` [Compound 23], the IC50 in assay [2] amounted to 24.1 µM; in assay [3] (setting [4]), 2.5 ± 0.9 µM.

As to `CN(C)CCC(=O)c1ccc2ccccc2c1` [Compound 7], the IC50 in assay [3] (Table 2 tertiary amines) was determined as 18.5 µM.

Turning to `CCCCN(C)CCC(=O)c1ccc2ccccc2c1` [Compound 10], in assay [3] (Table 2 tertiary amines), the half-inhibitory concentration (IC50) was found to be 44.5 µM.

Take `CN(C)CCC(=O)C1CCCCC1` [Compound 20]: in assay [3], the “activity in β-arrestin2 assay (in words)” value is recorded as “complete loss of activity”. Further, the IC50 in assay [3] (Table 2 tertiary amines) is greater than 100 µM.

For `C[N+](C)(C)CCC(=O)C1CCCCC1` [Compound 25], the values for the half-inhibitory concentration (IC50) in assay [2] and in assay [3] (setting [4]) were greater than 100 µM and 11.9 µM, respectively.

On to `COc1cccc(C(=O)CCN(C)C)c1` [Compound 18], for which the IC50 in assay [3] (Table 2 tertiary amines) is 64 µM.

For `COc1cccc(C(=O)CC[N+](C)(C)C)c1` [Compound 28], the IC50 is 14.6 ± 4.8 µM in assay [2] and 3.8 ± 1.7 µM in assay [3] (setting [4]).

On to `COc1cccc(OC)c1C(=O)CCN(C)C` [Compound 19], for which, in assay [3] (Table 2 tertiary amines), the concentration for half-maximal inhibition (IC50) was determined as 10.3 ± 4.5 µM.

For `COc1ccc(C(=O)CCN(C)C)cc1` [Compound 17], the IC50 in assay [3] (Table 2 tertiary amines) is greater than 100 µM.

On to `COc1ccc2ccccc2c1C(=O)CC[N+](C)(C)C` [Compound 33], for which the IC50 in assay [2] is 10.7 µM; in assay [3] (setting [4]) it was 0.6 ± 0.3 µM.

In the case of `C[N+](C)(C)CCC(=O)c1ccccc1.[I-]` [Compound 24], in assay [2], the “activity in chemotaxis assay (in words)” value is “did not show any activity” and the IC50 was greater than 100 µM. For the same compound, the half-inhibitory concentration (IC50) in assay [3] (setting [4]) came to 5.6 ± 0.7 µM.

Take `CCN(CC)CCC(=O)c1ccc2ccccc2c1` [Compound 8]: the IC50 in assay [3] (Table 2 tertiary amines) was 71.3 µM.

With `COc1ccc(C(=O)CC[N+](C)(C)C)c(OC)c1` [Compound 29], the results for the IC50 in assay [2] and in assay [3] (setting [4]) were 17.4 ± 2.2 µM and 4.8 ± 1.6 µM, respectively.

Take `COc1ccc2cc(C(=O)CC[N+](C)(C)C)ccc2c1` [Compound 32]: the 50% inhibitory concentration (IC50) in assay [2] was determined as 20 ± 6.2 µM; in assay [3] (setting [4]), 1.5 ± 0.3 µM.

Turning to `COc1cccc(OC)c1C(=O)CC[N+](C)(C)C.[I-]` [Compound 30], in assay [2], the “activity in chemotaxis assay (in words)” value is on record as “highly active” and the concentration for half-maximal inhibition (IC50) worked out at 6.8 µM. For the same compound, in assay [3], the “activity in β-arrestin2 assay (in words)” value is given as “highly active”. For the same compound, in assay [3] (setting [4]), the 50% inhibitory concentration (IC50) turned out to be 2.1 ± 1.1 µM.

On to `COC(=O)/C=C/C(=O)OC` [Tecfidera, dimethyl fumarate, reference compound], for which, in assay [1] (Fig. 1 study, 10 mg/kg daily in 10% captisol, s.c., d29 onset assumed for 2 α-NETA mice), the “day of EAE onset (mean ± SEM)” value stood at 14 ± 2 days.

With `COc1ccc2ccccc2c1C(=O)CCN(C)C` [Compound 6], in assay [1], the “Day of onset (Mean ± SEM)” value is 14.5 ± 0.4, the “Maximum Score (Mean ± SEM)” value was determined as 2.4 ± 0.2 and the “AUC (Mean ± SEM) of clinical score” value is 25.2 ± 4.0. Further, the concentration for half-maximal inhibition (IC50) in assay [3] (Table 2 tertiary amines) amounted to 6.2 ± 2.5 µM.

In the case of `COc1cc(OC)cc(C(=O)CC[N+](C)(C)C)c1` [Compound 31], the IC50 in assay [2] was greater than 100 µM; in assay [3] (setting [4]), 6 ± 2.2 µM.

Regarding `CCN(C)CCC(=O)c1ccc2ccccc2c1` [Compound 9], in assay [3] (Table 2 tertiary amines), the IC50 worked out at 39.6 µM.

For `COc1ccccc1C(=O)CCN(C)C` [Compound 16], the IC50 in assay [3] (Table 2 tertiary amines) is greater than 100 µM.

In the case of `COc1ccc2cc(C(=O)CCN(C)C)ccc2c1` [Compound 11], the IC50 in assay [3] (Table 2 tertiary amines) is greater than 100 µM.

Consider `COc1ccccc1C(=O)CC[N+](C)(C)C.[I-]` [Compound 26], for which, in assay [2], the “activity in chemotaxis assay (in words)” value is recorded as “highly active” and the IC50 stood at 7.2 µM. The “activity in β-arrestin2 assay (in words)” value in assay [3] is reported as “highly active”. In assay [3] (setting [4]), the IC50 came to 2.9 ± 1.6 µM.

Consider `C[N+](C)(C)CCS(=O)(=O)c1ccccc1` [Compound 35], for which the “activity in β-arrestin2 assay (in words)” value in assay [3] was “inactive”.
